Consider seven compounds from patent publication US7759526B2 (priority 2000, dated 2010).

Test [1] deals with human HL-60 promyelecytic leukemia cells. Kind of test: Apoptosis of HL-60 cells, Hoechst 33258 stain. The format is cell-based. Particulars: for % apoptosis / programmed cell death (apoptosis): HL-60; for % apoptosis: 24 h; for programmed cell death (apoptosis): dose dependent 0.1 μg/ml to 8 μg/ml. The source says:
The method used, namely determination by the fluorescent Hoechst 33258 stain, is described by T. R. Chen (Cell Res. 104, 255-262, 1977). A Table of results is appended in following Table D.

Test [2] concerns uptake of endocannabinoids into neuronal cells. In words: Uptake of endocannabinoids into neuronal cells. In kind it is cell-based. Conditions: preliminary data.
For a further test, the target named is CB2 (Homo sapiens, UniProt P34972). Conditions: cited from earlier work.
Chain of CB2 (P34972 whole entry, species assumed): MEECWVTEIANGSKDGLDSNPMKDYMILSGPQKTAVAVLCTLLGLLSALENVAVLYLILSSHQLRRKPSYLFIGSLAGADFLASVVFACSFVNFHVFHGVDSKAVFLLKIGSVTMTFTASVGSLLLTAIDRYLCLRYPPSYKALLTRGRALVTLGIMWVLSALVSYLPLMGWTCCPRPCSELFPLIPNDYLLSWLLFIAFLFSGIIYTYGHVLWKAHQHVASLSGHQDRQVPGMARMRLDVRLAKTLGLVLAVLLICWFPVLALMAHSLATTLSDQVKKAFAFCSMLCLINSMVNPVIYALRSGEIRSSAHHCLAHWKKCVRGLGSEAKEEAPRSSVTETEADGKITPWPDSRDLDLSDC
In test [3] the test system is tetradecanoylphorbolacetable (TPA) induced erythema of mouse ear. Conditions: application of a 100 μg/ml solution; Formukong et al. 1988; cited from earlier work.
Test [4] deals with phenylbenzoquinone writhing. Conditions: Formukong et al. 1988; cited from earlier work.
Test [5] concerns arachidonic acid-induced swelling of the ear. In words: Arachidonic acid-induced ear inflammation in the mouse. In kind it is in vivo. The protocol:
Mice (female Sabra) were treated with […] A′ A (in 5 μl EtOH) dispersed on the inner surface of one of the ears. The other ear was treated with 5 μl of EtOH. Ear swelling was assessed by measuring ear thickness with a dial thickness gauge (Mitutoyo, Japan) just before treatment and 30 min after A; A application. The drugs (40 mg/kg for the cannabinoids and 20 mg/kg for indomethacin) were injected i.p. 60 min before the A′ A treatment. *** indicates p<0.001.
The effect of various doses of CBD-7-oic acid (3a) (Example 28), and of CBD-DMH-7-oic acid (3b) (Example 28) and of indomethacin (20 mg/kg) after arachidonic acid-induced swelling of the ear are shown in FIG. 2. The effects were measured over 75 min after the administration of arachidonic acid.
(§1) Female Sabra mice (2 months old, Harlan-Sprague Dawley, Jerusalem) were used for a series of tests and for the assays for inflammation and peripheral pain. Groups of 5 mice were used in each experiment. Compounds 2a, 2b, 3a and 3b were dissolved in vehicle (ethanol:emulphor:saline=1:1:18) and injected intraperitoneally (i.p.) in volumes of 0.1 ml/10 g in mice as previously described (Hanus et al., 1999).
Ear inflammation was measured by assessing ear tissue swelling after topical application of arachidonic acid. […] The opposite ear served as control (5 μl ethanol). Ear thickness was determined (in 0.01 mm units) every 15 min for 90 min starting immediately after arachidonic acid application using a dial thickness gauge (Mitutoyo, Japan).

In a further test the test system is serum TNFα. In words: Serum TNFα in mice after ip injection of LPS. The format is in vivo. As for the experimental part:
This anti TNFα effect is also seen in vivo. High levels of TNFα appear in serum of mice after ip injection of 5 mg/kg/mouse lipopolysaccharide (LPS). […] At the lower dose of 0.5 mg/kg 80% suppression of TNFα level was observed. […] Thus 7-hydroxy-CBD (2a) in doses of 10 μg/kg i.p. suppressed serum TNFα in mice (30%).

Test [6] concerns formalin-induced paw licking. In words: Formalin test for peripheral pain. The format is in vivo, mouse. Conditions: mice; 20 mg/kg; 5 min recorded 30 min after formalin (3.2%). As for the experimental part: Thus mice injected with formalin (3.2% dissolved in saline) licked their paws 8±2 times over 5 min, recorded 30 min after the formalin administration.
as §1
Pain mediated by the peripheral nervous system, was tested in the ‘formalin test’ for cutaneous (peripheral) pain (Tjolson et al., 1992; Calignano et al., 1998; Jaggar et al, 1998). The compound tested (or vehicle) was injected i.p. Formalin (3.2% dissolved in saline) was injected s.c. in the plantar surface of the hind paw of a mouse (in 20 μl volumes) 90 min after the drug. Immediately after formalin administration nociception was assessed (every 5 min for 1 hr) by the number of times the animal licks for formalin-injected paw.

The nature of test [7]: Antianxiety and anticonvulsive effects (preliminary data).
Test [8] relates to release of reactive oxygen intermediates by monocytic RAW 264.7 cells. Kind of test: Zymosan-induced release of reactive oxygen intermediates, chemiluminescence. The format is cell-based. The source says:
Table of results are attached in following Table C.
(§2) The experimental methods used have been described in Gallily et al. (Eur. J. Pharmacol. 406, R5-R7, 2000), Avron and Gallily (J. Leukocyte Biol. 57, 264-268, 1995) and Gallily et al. (J. Pharmacol. Exp. Ther. 283, 918-924, 1997).

The test system of test [9] is TNFα production by Thioglycollate-elicited macrophages (TGMMΦ). In words: TNFα production by thioglycollate-elicited macrophages. The format is cell-based, murine. Conditions: TGMΦ; for % inhibition of TNFα titer: 24 hrs. The protocol:
(§3) The inhibition is dose dependent (10 μg-0.001 μg/ml). Tables of results are attached in following Tables A and B.
as §2

Test [10] concerns TNFα production by RAW 264.7 mouse monocytic cell line. Kind of test: TNFα production by RAW 264.7 mouse monocytic cell line. More on the design: TNFα Titer S50: unit not given beside the values. In kind it is cell-based. The protocol: as §3, §2
For a further test, the target named is T1, CB1 (Rattus norvegicus, UniProt P20272).
T1 construct: synaptosomal membranes prepared from rat brains; from tissue; host or cells: rat brain synaptosomal membranes
T1 sequence (P20272 whole entry): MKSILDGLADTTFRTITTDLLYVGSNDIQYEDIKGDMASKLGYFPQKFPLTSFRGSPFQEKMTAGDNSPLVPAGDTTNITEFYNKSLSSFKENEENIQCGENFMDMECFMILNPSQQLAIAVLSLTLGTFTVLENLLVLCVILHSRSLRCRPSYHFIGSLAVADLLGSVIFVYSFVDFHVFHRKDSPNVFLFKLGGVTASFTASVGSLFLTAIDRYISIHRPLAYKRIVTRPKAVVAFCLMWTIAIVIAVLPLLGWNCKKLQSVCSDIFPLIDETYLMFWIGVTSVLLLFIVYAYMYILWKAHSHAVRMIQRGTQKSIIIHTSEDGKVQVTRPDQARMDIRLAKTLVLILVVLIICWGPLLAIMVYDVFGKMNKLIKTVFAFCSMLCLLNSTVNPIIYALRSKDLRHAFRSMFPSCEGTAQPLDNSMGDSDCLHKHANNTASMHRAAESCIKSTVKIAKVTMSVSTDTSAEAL
Particulars: previously described probe; cited from earlier work.

[11] abbreviates: cannabinoid 40 mg/kg i.p., compared with indomethacin 20 mg/kg i.p.
Setting [12] is: cannabinoid 5 mg/kg, compared with indomethacin 20 mg/kg.
The mark [13] stands for this setting: cannabinoid 80 mg/kg, compared with indomethacin 20 mg/kg.

Entries after “also recorded” stand apart in the source; their conditions may differ.

In the case of `C=C(C)[C@@H]1CCC(C)=C[C@H]1c1c(O)cc(CCCCC)cc1O` [CBD, Cannabidiol], the “% apoptosis” value in test [1] (1 μg/ml, no irradiation) amounted to 19%; in [1] (1 μg/ml, γ-irradiation 800 rad), 28%; in test [1] (4 μg/ml, no irradiation), 33%; in [1] (4 μg/ml, γ-irradiation 800 rad), 45%; in [1] (8 μg/ml, no irradiation), 48%; in test [1] (8 μg/ml, γ-irradiation 800 rad), 85%. Also, the “programmed cell death (apoptosis)” value in test [1] is on record as “high rate of programmed cell death”. For the same compound, in [1] (HL-60 irradiated by γ ray (800 rad) and treated with cannabinoid), the “apoptosis, synergism with γ ray irradiation” value is on record as “up to 85%”. In test [2], the “uptake of endocannabinoids into neuronal cells” value (shortened to “uptake”) is reported as “prevent the uptake of endocannabinoids into neuronal cells”. Besides, at CB2, the “binding to cannabinoid receptor CB2” value is given as “does not bind”. The “inhibition of the inflammation response” value in test [3] is given as 92%. In test [4], the “analgesic potency compared with aspirin” value is on record as “much more potent than aspirin”.

Regarding `C=C(C)[C@@H]1CCC(C)=C[C@H]1c1c(O)cc(C(C)(C)CCCCCC)cc1O` [Compound 1b, CBD-DMH, reference compound], in [2], the “uptake” value is on record as “prevent the uptake of endocannabinoids into neuronal cells”.

With `C=C(C)[C@@H]1CCC(CO)=C[C@H]1c1c(O)cc(CCCCC)cc1O` [Compound 2a, 7-Hydroxy CBD], in [5] (setting [11]), the “antiinflammatory effect on arachidonic acid-induced ear swelling” value (shortened to “antiinflammatory effect”) is “less active than the potent antiinflammatory drug indomethacin”. Further, in the test on serum TNFα (10 μg/kg i.p.), the “suppression of serum TNFα” value is 30%. Also, the “paw licking, late phase of formalin-induced pain behavior” value (“paw licking, late phase” for short) in [6] is reported as “fully blocked the licking”. In addition, the “uptake” value in test [2] is reported as “prevent the uptake of endocannabinoids into neuronal cells”. Besides, the “antianxiety and anticonvulsive effects” value in test [7] was “have antianxiety and anticonvulsive effects”.

With `C=C(C)[C@@H]1CCC(CO)=C[C@H]1c1c(O)cc(C(C)(C)CCCCCC)cc1O` [Compound 2b, 7-Hydroxy CBD-DMH], the “antiinflammatory effect” value in [5] (setting [11]) was “less active than the potent antiinflammatory drug indomethacin”. Moreover, the “paw licking, late phase” value in test [6] is “fully blocked the licking”. In addition, the “uptake” value in test [2] was “prevent the uptake of endocannabinoids into neuronal cells”. Besides, the “antianxiety and anticonvulsive effects” value in test [7] is “have antianxiety and anticonvulsive effects”.

Turning to `C=C(C)[C@@H]1CCC(C(=O)O)=C[C@H]1c1c(O)cc(CCCCC)cc1O` [Compound 3a, 7-Nor-carboxy CBD], the “antiinflammatory effect” value in test [5] (setting [12]) is on record as “less active than 3b”; in test [5] (setting [11]), “essentially equivalent to that of indomethacin”; in [5] (setting [13]) it was “less effective than indomethacin”. Moreover, the Cherniluminescense peak in test [8] (Zymosan + 4 μg/ml) is 4139; in test [8] (Zymosan + 10 μg/ml), 1041. Also, the entries for the “Inhibition % of ROI release” value in test [8] (Zymosan + 4 μg/ml) and in test [8] (Zymosan + 10 μg/ml) were 31% and 83%, respectively. For the same compound, the “paw licking, late phase” value in [6] is recorded as “fully blocked the licking”. Further, the “antianxiety and anticonvulsive effects” value in [7] was “have antianxiety and anticonvulsive effects”.

In the case of `C=C(C)[C@@H]1CCC(C(=O)O)=C[C@H]1c1c(O)cc(C(C)(C)CCCCCC)cc1O` [Compound 3b, 7-Nor-carboxy CBD DMH], the “antiinflammatory effect” value in [5] (setting [12]) is “fully suppressed the inflammation; also recorded: as potent as indomethacin”; in [5] (setting [11]), “essentially equivalent to that of indomethacin”; in test [5] (setting [13]), “less effective than indomethacin”. For the same compound, the “TNFα Titer (S50) After 24 hrs.” value in test [9] (LPS + 0.01 μg/ml) came out at 535; in test [9] (LPS + 1 μg/ml), 501; in [9] (LPS + 5 μg/ml), 406; in test [9] (LPS + 10 μg/ml), 159. Further, the “% inhibition of TNFα titer” value was found to be 36% in test [9] (LPS + 0.01 μg/ml); 40% in test [9] (LPS + 1 μg/ml); 51% in [9] (LPS + 5 μg/ml); 81% in [9] (LPS + 10 μg/ml); 11% in test [10] (LPS + 0.01 μg/ml); 45% in [10] (LPS + 0.1 μg/ml). Further, the “% inhibition of TNFα titer” value in test [10] (LPS + 1 μg/ml) is listed as 63%; in [10] (LPS + 4 μg/ml) it was 65%; in [10] (LPS + 10 μg/ml), 91%. The “TNFα Titer S50” value in [10] (LPS + 0.01 μg/ml) turned out to be 5818; in test [10] (LPS + 0.1 μg/ml), 357.6; in [10] (LPS + 1 μg/ml) it was 2384; in test [10] (LPS + 4 μg/ml), 2300; in test [10] (LPS + 10 μg/ml), 615. In addition, in the test with serum TNFα (0.5 mg/kg simultaneously with LPS), the “suppression of TNFα level in serum” value stood at 80%. In the test on serum TNFα (0.5 and 5 mg/kg simultaneously with LPS 5 mg/kg ip), the “suppression of serum TNFα level” value is on record as “suppressed serum TNFα level”. The Cherniluminescense peak worked out at 1524 in test [8] (Zymosan + 4 μg/ml) and 432 in [8] (Zymosan + 10 μg/ml). Moreover, the “Inhibition % of ROI release” value in [8] (Zymosan + 4 μg/ml) is given as 83%; in test [8] (Zymosan + 10 μg/ml) it was 95%. For the same compound, the “paw licking, late phase” value in test [6] was “fully blocked the licking”. For the same compound, the “% apoptosis” value in test [1] (5 μg/ml, no irradiation) stood at 15%; in [1] (5 μg/ml, γ-irradiation 800 rad), 25%; in test [1] (10 μg/ml, no irradiation), 27%; in test [1] (10 μg/ml, γ-irradiation 800 rad), 58%. Also, the “programmed cell death (apoptosis)” value in test [1] is “high rate of programmed cell death”. Also, the “antianxiety and anticonvulsive effects” value in test [7] is “have antianxiety and anticonvulsive effects”.

One may read the Ki as a dissociation constant, usually derived from enzyme kinetics or from competition with a known ligand. Take `CCCCCCC(C)(C)c1cc(O)c2c(c1)OC(C)(C)[C@@H]1CC[C@@H](CO)C[C@@H]21` [[^3H]HU-243]: the Ki on CB1 was 0.045 ± 0.007 nM.
